Assay results reported in ChEMBL document CHEMBL5126517, “Structure-Activity Relationship in the Leucettine Family of Kinase Inhibitors” (J Med Chem, 2022).
Calls of active or inactive are those of the source.

How the values were obtained:
Casein kinase 2 = Casein kinase 2 (Homo sapiens, UniProt P67870+P68400+P19784+Q8NEV1); experiment: Inhibition of human recombinant CK2 using RRRDDDSDDD peptide as substrate incubated for 30 mins in presence of ATP by scintillation counting method; format: protein assay
[1] = Neurotoxicity against mouse HT-22 cells assessed as cell survival treated for 24 hrs by MTS assay; format: toxicity, cell-based
[2] = Neurotoxicity against mouse HT-22 cells assessed as cell survival at 20 uM treated for 24 hrs by MTS assay; format: toxicity, cell-based; conditions: ht-22, 24 h
Cannabinoid receptor 1 [3] = molecular target: T1, Cannabinoid receptor 1 (Homo sapiens, UniProt P21554); experiment: Antagonist activity at CP-55940-activated CB1 receptor (unknown origin) at 10 uM by beta-arrestin assay relative to control; format: functional; design: scale not given: the % may be the effect or the level left
T1 sequence (P21554 whole entry): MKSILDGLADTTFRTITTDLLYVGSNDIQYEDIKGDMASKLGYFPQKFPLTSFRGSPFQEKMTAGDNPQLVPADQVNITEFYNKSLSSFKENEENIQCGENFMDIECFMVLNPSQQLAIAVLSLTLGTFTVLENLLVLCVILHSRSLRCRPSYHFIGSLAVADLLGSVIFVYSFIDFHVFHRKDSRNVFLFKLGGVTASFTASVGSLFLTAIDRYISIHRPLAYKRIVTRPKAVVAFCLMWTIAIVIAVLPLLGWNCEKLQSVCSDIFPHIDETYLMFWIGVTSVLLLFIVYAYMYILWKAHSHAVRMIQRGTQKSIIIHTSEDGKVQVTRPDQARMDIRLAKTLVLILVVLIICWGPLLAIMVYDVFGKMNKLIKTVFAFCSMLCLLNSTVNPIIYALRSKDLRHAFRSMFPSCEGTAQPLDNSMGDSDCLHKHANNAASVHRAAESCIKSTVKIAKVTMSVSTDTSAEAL

HT-22 [4] = experiment: Induction of PI3K/mTor-dependent autophagy in mouse HT-22 cells assessed as number of LC3 foci per cell at 10 uM incubated for 24 hrs using Lamp-1 staining based immunofluorescence microscopy; conditions: filed as activator
HT-22 [5] = experiment: Modulation of CLK1 pre-mRNA splicing in mouse HT-22 cells assessed as inclusion of CLK1 exon 4 by measuring change in threshold cycle at 10 uM measured after 4 hrs by real time PCR analysis; format: cell-based; conditions: filed as modulator
HT-22 [6] = conditions: Mus musculus, filed as modulator, dose 10.0 µM, time 6.0 hrs
HT-22 [7] = experiment: Modulation of CLK1 pre-mRNA splicing in mouse HT-22 cells assessed as maximal effect of CLK1 exon 4 inclusion measured after 3 hrs by qPCR analysis; format: functional, cell-based
[8] = molecular target: T2, Glycogen synthase kinase-3 (Sus scrofa, UniProt B2LUN4+I6LNT8); experiment: Inhibition of porcine brain GSK-3alpha/beta using YRRAAVPPSPSLSRHSSPHQpSEDEEE as substrate incubated for 30 mins in presence of ATP by scintillation counting method; format: tissue-based
Cannabinoid receptor 1 [9] = molecular target: T1, Cannabinoid receptor 1; experiment: […] allosteric modulation of CB1 receptor (unknown origin) expressed in HEK293 cell membrane assessed as inhibition of CP-55940-induced [35S]-GTPgammaS binding at 10 uM in presence of GDP by liquid scintillation counting method; format: functional, cell membranes; conditions: DDE = dose-dependent effect
[10] = Reduction in phosphorylated Tau Thr212 residue in wild-type C57BL/6J mouse brain dosed at 20 mg/kg/day, ip for 19 days by western blot analysis; format: toxicity, organism-based; conditions: in vivo, 456 h, time 19 day
HT-22 [11] = experiment: Induction of PI3K/mTor-dependent autophagy in mouse HT-22 cells assessed as number of LC3 foci per cell at 10 uM incubated for 24 hrs using Anti-LC3 staining based immunofluorescence microscopy; conditions: filed as activator
Mus musculus = experiment: Reduction in phosphorylated Tau Thr212 residue in Tg(Dyrk1a) mutant C57BL/6J mouse brain dosed at 20 mg/kg/day, ip for 19 days by western blot analysis; format: functional, organism-based; conditions: time 19.0 day
HT-22 [12] = experiment: Neuroprotective activity against glutamate-induced cell death in mouse HT-22 cells at 10 uM incubated for 24 hrs by phase contrast microscopy; format: functional, cell-based
U2OS = experiment: Induction of PI3K/mTor-dependent autophagy in human U2OS cells assessed as number of LC3 foci per cell at 10 uM measured after 4 hrs; format: cell-based; conditions: filed as activator
Cannabinoid receptor 1 [13] = molecular target: T1, Cannabinoid receptor 1; experiment: Displacement of [3H]-CP55940 from CB1 receptor (unknown origin) expressed in HEK293 cell membrane assessed as dissociation constant at 10 uM by liquid scintillation counting method; format: cell membranes; conditions: filed as modulator
HT-22 [14] = experiment: Neuroprotective activity against glutamate-induced cell death in mouse HT-22 cells treated for 24 hrs by MTS assay; format: functional, cell-based; conditions: HT-22, 24 h
[15] = molecular target: Dual specificity protein kinase CLK3 (Mus musculus, UniProt O35492); experiment: Inhibition of GST-fused mouse recombinant CLK3 expressed in Escherichia coli using GRSRSRSRSRSR peptide as substrate incubated for 30 mins in presence of ATP by scintillation counting method
Chain of Dual specificity protein kinase CLK3 (O35492 whole entry, the tested form may be a part): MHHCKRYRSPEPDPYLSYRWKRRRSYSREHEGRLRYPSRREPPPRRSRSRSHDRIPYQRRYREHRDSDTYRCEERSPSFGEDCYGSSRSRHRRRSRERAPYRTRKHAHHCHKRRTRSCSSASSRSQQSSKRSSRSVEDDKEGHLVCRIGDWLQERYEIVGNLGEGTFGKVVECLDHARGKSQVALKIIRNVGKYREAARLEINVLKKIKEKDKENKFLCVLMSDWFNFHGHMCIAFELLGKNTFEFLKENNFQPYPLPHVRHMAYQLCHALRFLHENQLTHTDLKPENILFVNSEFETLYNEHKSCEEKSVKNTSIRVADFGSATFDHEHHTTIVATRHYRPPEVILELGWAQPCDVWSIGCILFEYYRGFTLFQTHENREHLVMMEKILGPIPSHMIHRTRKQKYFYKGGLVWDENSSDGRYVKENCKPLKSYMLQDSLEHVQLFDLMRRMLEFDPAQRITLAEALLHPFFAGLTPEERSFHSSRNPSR

[16] = molecular target: Dual specificity tyrosine-phosphorylation-regulated kinase 1A (Homo sapiens, UniProt Q13627); experiment: Inhibition of GST-fused human recombinant DYRK1A expressed in Escherichia coli using GRSRSRSRSRSR peptide as substrate incubated for 30 mins in presence of ATP by scintillation counting method
[17] = molecular target: Serine/threonine-protein kinase pim-1 (Homo sapiens, UniProt P11309); experiment: Inhibition of human recombinant Pim1 expressed in Escherichia coli using histone H1 as substrate incubated for 30 mins in presence of ATP by scintillation counting method
Chain of Serine/threonine-protein kinase pim-1 (P11309 whole entry, the tested form may be a part): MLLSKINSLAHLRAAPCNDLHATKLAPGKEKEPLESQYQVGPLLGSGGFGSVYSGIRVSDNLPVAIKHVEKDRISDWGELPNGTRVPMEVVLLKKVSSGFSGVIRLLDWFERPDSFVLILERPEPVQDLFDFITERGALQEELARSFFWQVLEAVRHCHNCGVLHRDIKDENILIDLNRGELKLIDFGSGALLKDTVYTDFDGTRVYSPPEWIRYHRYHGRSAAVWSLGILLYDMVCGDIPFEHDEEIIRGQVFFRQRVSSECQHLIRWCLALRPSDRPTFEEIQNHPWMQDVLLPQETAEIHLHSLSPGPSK

[18] = molecular target: Dual specificity protein kinase CLK2 (Mus musculus, UniProt O35491); experiment: Inhibition of mouse recombinant GST-fused CLK2 expressed in Escherichia coli using GRSRSRSRSRSR peptide as substrate incubated for 30 mins in presence of ATP by scintillation counting method
Chain of Dual specificity protein kinase CLK2 (O35491 whole entry, the tested form may be a part): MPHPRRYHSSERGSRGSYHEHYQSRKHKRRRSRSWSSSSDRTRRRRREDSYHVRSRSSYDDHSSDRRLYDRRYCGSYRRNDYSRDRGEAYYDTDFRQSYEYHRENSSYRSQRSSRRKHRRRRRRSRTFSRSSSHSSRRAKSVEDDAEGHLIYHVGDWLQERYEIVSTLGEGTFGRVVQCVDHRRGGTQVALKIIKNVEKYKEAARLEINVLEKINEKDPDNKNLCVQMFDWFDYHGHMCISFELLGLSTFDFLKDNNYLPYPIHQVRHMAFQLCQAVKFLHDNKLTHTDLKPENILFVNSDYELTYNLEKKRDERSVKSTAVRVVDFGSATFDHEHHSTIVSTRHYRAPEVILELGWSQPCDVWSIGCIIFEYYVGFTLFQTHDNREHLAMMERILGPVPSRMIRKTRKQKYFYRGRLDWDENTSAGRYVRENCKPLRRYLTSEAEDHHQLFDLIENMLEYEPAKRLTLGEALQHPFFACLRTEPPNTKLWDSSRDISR

[19] = molecular target: Dual specificity protein kinase CLK1 (Mus musculus, UniProt P22518); experiment: Inhibition of GST-fused mouse recombinant CLK1 expressed in Escherichia coli using GRSRSRSRSRSR peptide as substrate incubated for 30 mins in presence of ATP by scintillation counting method
Chain of Dual specificity protein kinase CLK1 (P22518 whole entry, the tested form may be a part): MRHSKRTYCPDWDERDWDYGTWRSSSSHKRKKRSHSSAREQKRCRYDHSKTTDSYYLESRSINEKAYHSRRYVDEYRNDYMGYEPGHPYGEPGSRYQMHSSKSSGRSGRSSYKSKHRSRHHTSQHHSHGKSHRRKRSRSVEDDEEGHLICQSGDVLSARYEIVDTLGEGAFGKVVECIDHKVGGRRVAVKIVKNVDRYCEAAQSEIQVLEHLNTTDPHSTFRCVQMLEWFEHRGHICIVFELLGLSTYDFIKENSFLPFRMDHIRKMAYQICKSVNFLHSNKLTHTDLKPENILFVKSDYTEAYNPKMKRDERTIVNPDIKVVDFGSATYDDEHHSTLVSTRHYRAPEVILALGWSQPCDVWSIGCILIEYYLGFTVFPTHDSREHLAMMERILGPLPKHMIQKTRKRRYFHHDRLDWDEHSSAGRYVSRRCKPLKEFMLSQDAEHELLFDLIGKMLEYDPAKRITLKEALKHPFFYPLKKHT

[20] = molecular target: Dual specificity protein kinase CLK4 (Mus musculus, UniProt O35493); experiment: Inhibition of GST-fused mouse recombinant CLK4 expressed in Escherichia coli using GRSRSRSRSRSR peptide as substrate incubated for 30 mins in presence of ATP by scintillation counting method
Chain of Dual specificity protein kinase CLK4 (O35493 whole entry, the tested form may be a part): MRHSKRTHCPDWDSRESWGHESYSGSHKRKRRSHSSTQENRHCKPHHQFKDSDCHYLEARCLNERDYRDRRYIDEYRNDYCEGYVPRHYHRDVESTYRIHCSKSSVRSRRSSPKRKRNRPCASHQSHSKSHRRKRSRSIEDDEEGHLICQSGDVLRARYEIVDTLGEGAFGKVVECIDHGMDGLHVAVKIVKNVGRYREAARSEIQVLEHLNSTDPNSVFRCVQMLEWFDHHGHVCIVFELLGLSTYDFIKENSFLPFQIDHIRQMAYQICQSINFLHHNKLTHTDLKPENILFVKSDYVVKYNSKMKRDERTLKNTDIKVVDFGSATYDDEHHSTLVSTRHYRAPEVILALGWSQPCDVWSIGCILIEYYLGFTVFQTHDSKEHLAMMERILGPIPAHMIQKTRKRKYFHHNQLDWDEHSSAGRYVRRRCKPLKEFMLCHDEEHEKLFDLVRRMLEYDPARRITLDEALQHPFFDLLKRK

[21] = molecular target: T3, Dual specificity tyrosine-phosphorylation-regulated kinase 2 (Homo sapiens, UniProt Q92630); experiment: Inhibition of GST-fused human recombinant DYRK2 expressed in Escherichia coli using GRSRSRSRSRSR peptide as substrate incubated for 30 mins in presence of ATP by scintillation counting method
T3 sequence (Q92630 whole entry): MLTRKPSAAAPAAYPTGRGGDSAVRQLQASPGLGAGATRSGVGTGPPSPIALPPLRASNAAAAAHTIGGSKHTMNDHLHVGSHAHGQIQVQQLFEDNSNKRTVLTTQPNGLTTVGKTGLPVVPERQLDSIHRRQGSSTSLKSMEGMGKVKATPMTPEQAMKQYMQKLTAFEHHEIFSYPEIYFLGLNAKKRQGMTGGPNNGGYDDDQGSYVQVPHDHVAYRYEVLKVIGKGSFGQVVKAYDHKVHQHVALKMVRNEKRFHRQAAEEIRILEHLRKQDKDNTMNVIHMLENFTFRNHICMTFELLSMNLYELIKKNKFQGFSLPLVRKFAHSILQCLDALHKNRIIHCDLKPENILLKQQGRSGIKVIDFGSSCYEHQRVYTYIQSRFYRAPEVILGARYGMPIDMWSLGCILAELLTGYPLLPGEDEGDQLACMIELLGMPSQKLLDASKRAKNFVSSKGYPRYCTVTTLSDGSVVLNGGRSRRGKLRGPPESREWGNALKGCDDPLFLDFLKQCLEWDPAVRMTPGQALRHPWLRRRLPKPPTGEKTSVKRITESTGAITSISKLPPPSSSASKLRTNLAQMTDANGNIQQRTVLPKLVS

Cannabinoid receptor 1 [22] = molecular target: T1, Cannabinoid receptor 1; experiment: Antagonist activity at CP-55940-activated CB1 receptor (unknown origin) by beta-arrestin assay; format: functional
[23] = molecular target: Dual specificity tyrosine-phosphorylation-regulated kinase 1B (Homo sapiens, UniProt Q9Y463)
Chain of Dual specificity tyrosine-phosphorylation-regulated kinase 1B (Q9Y463 whole entry, the tested form may be a part): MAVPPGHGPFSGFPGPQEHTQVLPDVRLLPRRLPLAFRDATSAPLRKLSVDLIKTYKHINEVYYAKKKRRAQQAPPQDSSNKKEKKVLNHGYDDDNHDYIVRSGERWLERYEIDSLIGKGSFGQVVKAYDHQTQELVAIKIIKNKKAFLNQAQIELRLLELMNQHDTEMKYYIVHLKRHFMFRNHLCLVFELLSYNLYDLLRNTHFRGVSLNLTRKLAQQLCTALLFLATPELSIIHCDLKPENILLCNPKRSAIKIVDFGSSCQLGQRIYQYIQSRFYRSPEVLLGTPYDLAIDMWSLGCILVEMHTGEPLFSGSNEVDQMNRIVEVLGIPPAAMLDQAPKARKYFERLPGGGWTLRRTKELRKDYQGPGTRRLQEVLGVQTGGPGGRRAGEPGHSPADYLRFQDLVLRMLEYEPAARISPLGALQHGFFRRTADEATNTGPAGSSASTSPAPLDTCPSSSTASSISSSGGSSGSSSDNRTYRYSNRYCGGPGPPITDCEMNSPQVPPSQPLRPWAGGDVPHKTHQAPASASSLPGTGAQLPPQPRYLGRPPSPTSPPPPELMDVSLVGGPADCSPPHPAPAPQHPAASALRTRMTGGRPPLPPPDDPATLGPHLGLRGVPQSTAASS

[24] = molecular target: T4, Dual specificity tyrosine-phosphorylation-regulated kinase 3 (Homo sapiens, UniProt O43781); experiment: Inhibition of GST-fused human recombinant DYRK3 expressed in Escherichia coli using GRSRSRSRSRSR peptide as substrate incubated for 30 mins in presence of ATP by scintillation counting method
T4 sequence (O43781 whole entry): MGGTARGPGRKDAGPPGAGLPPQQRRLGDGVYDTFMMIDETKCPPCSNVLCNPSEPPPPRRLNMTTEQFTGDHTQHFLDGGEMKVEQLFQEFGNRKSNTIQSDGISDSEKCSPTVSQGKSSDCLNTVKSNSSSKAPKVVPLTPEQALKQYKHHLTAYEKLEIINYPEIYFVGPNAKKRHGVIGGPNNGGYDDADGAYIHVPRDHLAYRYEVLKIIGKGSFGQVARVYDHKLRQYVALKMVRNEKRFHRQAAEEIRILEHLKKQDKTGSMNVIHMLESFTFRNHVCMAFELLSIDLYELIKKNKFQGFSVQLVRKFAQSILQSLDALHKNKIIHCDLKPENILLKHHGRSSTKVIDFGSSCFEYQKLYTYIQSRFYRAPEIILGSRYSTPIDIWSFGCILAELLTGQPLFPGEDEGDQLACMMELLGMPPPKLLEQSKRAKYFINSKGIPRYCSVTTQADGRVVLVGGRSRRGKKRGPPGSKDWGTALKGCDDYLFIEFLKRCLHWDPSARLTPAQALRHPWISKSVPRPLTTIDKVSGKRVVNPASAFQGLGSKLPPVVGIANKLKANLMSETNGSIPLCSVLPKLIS

[25] = molecular target: T2, Glycogen synthase kinase-3; experiment: Inhibition of porcine brain GSK-3alpha/beta at 10 uM using YRRAAVPPSPSLSRHSSPHQpSEDEEE as substrate incubated for 30 mins in presence of ATP by scintillation counting method; format: tissue-based
[26] = Neurotoxicity against mouse HT-22 cells assessed as cell survival at 10 uM treated for 24 hrs by MTS assay; format: toxicity, cell-based; conditions: ht-22, 24 h
[27] = Drug metabolism in human liver microsomes assessed as GSH reduction metabolite at 50 uM incubated for 60 mins in presence of 13C2,15N-GSH by LC-MS/MS analysis; format: ADME, Microsome; conditions: 1 h

## O=C1NC(Nc2ccccc2)=N/C1=C\c1ccc2c(c1)OCO2
Casein kinase 2
  IC50: 510 nM
[1]
  IC50 at 24 h: > 20000 nM
[2]
  Activity: Non-Toxic
Cannabinoid receptor 1 [3]; filed as antagonist
  Activity: 96.8%
Cannabinoid receptor 1 [3]; filed as antagonist, tested as the 2H-labelled form
  Activity: 92.7%
HT-22 [4]
  Activity: Active
HT-22 [5]
  deltaCT: 8.18
HT-22 [5]; tested as the 2H-labelled form
  deltaCT: 7.71
HT-22 [6]
  deltaCT: 8.18
HT-22 [7]
  Activity: Active
[8]
  IC50: 600 nM
Cannabinoid receptor 1 [9]
  Activity: Dde
[10]
  Activity: Non-Toxic
HT-22 [11]
  Activity: Active
Mus musculus
  Activity: Active
HT-22 [12]
  Activity: Active
U2OS
  Activity: 11.6
U2OS; tested as the 2H-labelled form
  Activity: 7.3
Cannabinoid receptor 1 [13]
  Kb: 2200 nM
HT-22 [14]
  EC50: 6020 nM

## COc1cc(/C=C2\N=C(Nc3ccccc3)NC2=O)ccc1O
Casein kinase 2
  IC50: 620 nM
[15]
  IC50: 610 nM
[16]
  IC50: 70 nM
[17]
  IC50: 180 nM
[18]
  IC50: 140 nM
[1]
  IC50 at 24 h: > 20000 nM
[19]
  IC50: 21 nM
Cannabinoid receptor 1 [3]
  Activity: 1.6%
HT-22 [4]
  Activity: Active
[8]
  IC50: 1100 nM
[20]
  IC50: 23 nM
[21]
  IC50: 33 nM
HT-22 [11]
  Activity: Active
Cannabinoid receptor 1 [22]
  IC50: 4700 nM
[23]
  IC50: 62 nM
[24]
  IC50: 120 nM
U2OS
  Activity: 11.7
HT-22 [14]
  EC50: 1280 nM

## O=C1N=C(Nc2ccccc2)S/C1=C\c1ccc2c(c1)OCO2
Casein kinase 2
  IC50: 2500 nM
[15]
  IC50: 430 nM
[16]
  IC50: 10000 nM
[17]
  IC50: > 10000 nM
[18]
  IC50: > 10000 nM
[1]
  EC50 at 24 h: > 20000 nM
[19]
  IC50: 800 nM
[25]
  IC50: 2500 nM
Cannabinoid receptor 1 [3]
  Activity: -5.9%
HT-22 [5]
  deltaCT: -0.09
[20]
  IC50: 1200 nM
[21]
  IC50: > 10000 nM
[23]
  IC50: 610 nM
U2OS
  Activity: 5.9

## COc1cc(/C=C2\N=C(Nc3ccc(N4CCCCC4)cc3)NC2=O)ccc1O
[16]
  IC50: 280 nM
[17]
  IC50: 6300 nM
[18]
  IC50: > 10000 nM
[19]
  IC50: 750 nM
Cannabinoid receptor 1 [3]; filed as antagonist
  Activity: 84.1%
[26]
  Activity: Non-Toxic
[8]
  IC50: > 10000 nM
[20]
  IC50: 1200 nM
[21]
  IC50: 410 nM
Cannabinoid receptor 1 [22]
  IC50: 297 nM
[23]
  IC50: 410 nM
[24]
  IC50: 300 nM
U2OS
  Activity: 10.9
HT-22 [14]
  EC50: 1350 nM

## COc1cc(/C=C2\N=C(Nc3ccc(N4CCN(C)CC4)cc3)NC2=O)ccc1O
[2]
  Activity: Non-Toxic
[27]
  Drug metabolism: Metabolite_Notdetected
Cannabinoid receptor 1 [3]
  Activity: 14.3%
[8]
  IC50: 200 nM
U2OS
  Activity: 22
HT-22 [14]
  EC50: > 20000 nM
